These are literature values, as cited in patent publication US9855513B2, “Method for producing concentrated aqueous solution of organic compound” (Kao Corporation, priority 2012, dated 2018).

Each structure is given as a SMILES string.

For the series the following is noted: in a water of 100 g at 25° C.

On to `OCC(O)CO` [glycerol], for which the solubility degree entry is “∞”.
